The text below walks through data of PubChem BioAssay AID504576 (Southern Research Specialized Biocontainment Screening …, 2011).

The test system of this assay is MAGI cells cytotoxicity, 2% serum, % cell control. As to the kind of experiment: viability reduction in MAGI cells – cell-based, CCR5-tropic MAGI assay, 2% serum, set 4, cytotoxicity control for HIV-1 antiviral lead project, dose response (AID 504576).
One may read the CC50 as the concentration giving 50% cytotoxicity. In the case of `COc1ccc(CCn2c(O)cc3nn(-c4nc5ccccc5s4)c(=O)c-3c2C)cc1`, the CC50 is 13.8 µM. Take `COc1ccccc1Cn1c(O)cc2nn(-c3nc4ccccc4s3)c(=O)c-2c1C`: the CC50 was 43.2 µM. The result for `Cc1c2c(=O)n(-c3nc4ccccc4s3)nc-2cc(O)n1Cc1ccccc1Cl` reads 32.9 µM; that for `COc1ccc(Cn2c(O)cc3nn(-c4nc5ccccc5s4)c(=O)c-3c2C)cc1`, 41.1 µM.

For `Cc1c2c(=O)n(-c3nc4ccccc4s3)nc-2cc(O)n1CCc1cccs1`, the CC50 is 74.8 µM. Regarding `Cc1c2c(=O)n(-c3nc4ccccc4s3)nc-2cc(O)n1CCC(C)C`, the CC50 is 65 µM. Then `Cc1c2c(=O)n(-c3nc4ccccc4s3)nc-2cc(O)n1CCc1ccc(O)cc1`, with 20.5 µM.
